1 compound from US11033640B2, “Enteric CT contrast material based on low-z atoms” (priority 2013, dated 2021) can be followed below.

The test system of this series is rabbit.

On to `[Mg+2].[OH-].[OH-]` [Mg(OH)2, magnesium hydroxide], for which, for the setting “rabbit model, high-concentration suspension diluted to 400 HU”, the Toxicity or discomfort result is reported as “without observing obvious toxicity or discomfort”. The “Differentiation from iodinated intravascular contrast, two-material decomposition” value (rabbit, dual energy CT) was “without interfering signal from the intravascular iodinated contrast material”.
